Experiment [1] deals with Normal human dermal fibroblasts (NHDF). Briefly: Effect for protecting cells from oxidation stress in dermal fibroblasts (cellular ATP level after hydrogen peroxide). The note with it: for ATP level: 1 mM hydrogen peroxide for 15 minutes. The class given is cell-based. The procedure: Normal human dermal fibroblasts (NHDF: product of Kurabo Industries, Ltd.) were incubated in the basal medium Medium 106S (product of Kurabo Industries, Ltd.) supplemented with 2% fetal bovine serum, 10 μg/ml of heparin, 1 μg/ml of hydrocortisone, 10 ng/ml of human recombinant epidermal growth factor, and 3 ng/ml of human recombinant basic fibroblast growth factor under conditions of 37° C. and 5% CO2. After confluence, the cells were seeded onto a 96-well microplate (2.0×10^3 cells/well). In seeding, Medium 106S (product of Kurabo Industries, Ltd.) supplemented with 2% fetal bovine serum, 10 μg/ml of heparin, and 1 μg/ml of hydrocortisone was used. After 24 hours culture, the medium was exchanged to the same medium supplemented with a sample specimen, and after 24 hours, it was exchanged to Medium 106S (product of Kurabo Industries, Ltd.) supplemented with 2% fetal bovine serum, 10 μg/ml of heparin, 1 μg/ml of hydrocortisone, 7.5 μg/ml of coenzyme A, and a sample specimen in order to further culture for 48 hours. After that, the medium was removed to be exchange to the medium supplemented with 1 mM hydrogen peroxide (product of Wako Pure Chemical Industries), and then the cells were incubated for 15 minutes followed by rinsing with PBS, and cellular ATP level was determined using ATP assay kit (product of PerkinElmer) for comparison. The parametrical multiple comparison (Turkey type) was carried out in statistical processing, and the symbol “†” refers that the percentage of risk is less than 5% in comparison with the control group containing solvent only.

Experiment [2] has the same test system. Put plainly: Cell activation-promoting effect in dermal fibroblasts (cellular ATP level). The class given is cell-based. Conditions: for ATP level: 48 hours culture with sample. The procedure: Normal human dermal fibroblasts (NHDF: product of Kurabo Industries, Ltd.) were incubated in the basal medium Medium 106S (product of Kurabo Industries, Ltd.) supplemented with 2% fetal bovine serum, 10 μg/ml of heparin, 1 μg/ml of hydrocortisone, 10 ng/ml of human recombinant epidermal growth factor, and 3 ng/ml of human recombinant basic fibroblast growth factor under conditions of 37° C. and 5% CO2. After confluence, the cells were seeded onto a 96-well microplate (2.0×10^3 cells/well). In seeding, Medium 106S (product of Kurabo Industries, Ltd.) supplemented with 2% fetal bovine serum, 10 μg/ml of heparin, and 1 μg/ml of hydrocortisone was used. After 24 hours culture, the medium was exchanged to the same medium supplemented with a sample specimen in order to further culture for 48 hours. After that, the medium was removed and then the cells were rinsed with PBS, and cellular ATP level was determined using ATP assay kit (product of PerkinElmer) for comparison. The parametrical multiple comparison (Turkey type) was carried out in statistical processing, and the symbol “*” refers that the percentage of risk is less than 5%, and the symbol “**” refers that the percentage of risk is less than 1%, in comparison with the control group containing solvent only. In addition, the symbol “†” at the numerical value refers that the percentage of risk is less than 5% in comparison with oxidized coenzyme Q10.

A further experiment deals with brown guinea pigs. Briefly: Inhibitory effect on pigmentation due to ultraviolet radiation. The class given is in vivo, guinea pig. Conditions: average of scores (Table 1) of six brown guinea pigs, #=(L1−L0)−(L′1−L′0), sample vs medium, UVB-irradiated dorsal skin, polyethylene glycol ointment containing 10 parts by weight of reduced coenzyme Q10 applied once a day for one month. The procedure: The dorsal hair of six brown guinea pigs was carefully shaved with a clipper or shaver, and the shaved dorsal skin of each guinea pig was irradiated with ultraviolet beams (UVB: wavelength 250 to 350 nm) in the minimum erythema dose at two square portions of 2 cm′2 cm on the right and left of the dorsal median. The ultraviolet irradiation was performed once every other day for three days to induce erythema. Also, a medium and a sample were continuously applied to the respective irradiated portions (erythema portions) once a day for one month to examine the inhibitory action on pigmentation. As the sample, a polyethylene glycol ointment containing 10 parts by weight of reduced coenzyme Q10 was used. As the medium, only polyethylene glycol was used. Evaluation was performed by measurement with a color-difference meter, and an L value was calculated from the observed Munsell value.
Namely, DL (change with time) of the medium-applied portion was subtracted from DL (change with time) of the opposite sample-applied portion to obtain a value (#) according to the following equation: #=(L1−L0)−(L′1−L′0)
L0: Test portion before application of the sample
L′0: Test portion before application of the medium
L1: Sample-applied test portion one month after continuous application
L′1: Medium-applied test portion one month after continuous application […]

Each structure is given as a SMILES string. Marks after values point to notes of the source that are not given here.

These results are taken from patent US20070196349A1, “Whitening composition containing reduced coenzyme Q” (KANEKA CORPORATION, priority 2004, published 2007).

In the case of `COC1=C(OC)C(=O)C(C/C=C(\C)CC/C=C(\C)CC/C=C(\C)CC/C=C(\C)CC/C=C(\C)CC/C=C(\C)CC/C=C(\C)CC/C=C(\C)CC/C=C(\C)CCC=C(C)C)=C(C)C1=O` [Oxidized coenzyme Q10, oxidized coenzyme Q10, reference compound], the ATP level is 82.29 ± 9.08 nM in experiment [1] (8.13 μg/ml), 103.41 ± 1.17 nM in experiment [1] (100 μg/ml), 183.23 ± 62.70 nM in experiment [2] (0.12 μg/ml) and 224.84 ± 43.55* nM in experiment [2] (0.98 μg/ml). The “cellular ATP level compared with the solvent control” value in experiment [2] (result in words) is reported as “significantly increase the cellular ATP level”.

Consider `COc1c(O)c(C)c(C/C=C(\C)CC/C=C(\C)CC/C=C(\C)CC/C=C(\C)CC/C=C(\C)CC/C=C(\C)CC/C=C(\C)CC/C=C(\C)CC/C=C(\C)CCC=C(C)C)c(O)c1OC` [Reduced coenzyme Q10, reduced coenzyme Q10], for which the ATP level in experiment [1] (8.13 μg/ml) is 73.93 ± 4.96 nM; in experiment [1] (100 μg/ml), 112.47 ± 5.45 nM; in experiment [2] (0.12 μg/ml) it was 277.21 ± 46.02**† nM; in experiment [2] (0.98 μg/ml), 267.24 ± 20.72** nM. In addition, the “cellular ATP level compared with the solvent control” value is listed as “significantly increase the cellular ATP level” in experiment [1] (100 μg/ml, hydrogen peroxide oxidation stress, result in words) and “significantly increase the cellular ATP level” in experiment [2] (result in words). Besides, the Average evaluation score is recorded as 2.17 with brown guinea pigs and 2 (0 ≦ # < 0.5) in the experiment with brown guinea pigs (listed as reduced coenzyme Q10). Besides, in experiment [2] (result in words), the “cellular ATP level, reduced compared with oxidized coenzyme Q10” value was “significantly increase the cellular ATP level”.
